Source: PubChem BioAssay AID256 (DTP/NCI, 2004)
Values joined by “and” are separate entries in the source; they are usually repeats but may differ in a detail not shown here. Equal values may be shown once. Toxic doses and inconclusive results are not listed.

Test system: CD2F1 mice, L1210 leukemia ip, survival T/C
Assay: NCI In Vivo Anticancer Drug Screen. Data for tumor model L1210 Leukemia (intraperitoneal) in CD2F1 (CDF1) mice
Conditions: higher = longer survival
In short: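 Activity against a transplanted murine tumor was judged by comparing the compound group with a vehicle group. The outcome in the treated animals was divided by that in the controls.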

[1] = endpoint: mean survival time, dose: 75.0 mg/kg/injection, schedule: Q01DX001 (ip), vehicle: other
[2] = endpoint: mean survival time, dose: 150.0 mg/kg/injection, schedule: Q01DX001 (ip), vehicle: other
[3] = endpoint: mean survival time, dose: 300.0 mg/kg/injection, schedule: Q01DX001 (ip), vehicle: other
[4] = endpoint: mean survival time, dose: 100.0 mg/kg/injection, schedule: Q04DX003 (ip), vehicle: saline with Tween-80
[5] = endpoint: mean survival time, dose: 200.0 mg/kg/injection, schedule: Q04DX003 (ip), vehicle: saline with Tween-80
[6] = endpoint: mean survival time, dose: 400.0 mg/kg/injection, schedule: Q04DX003 (ip), vehicle: saline with Tween-80
[7] = endpoint: mean survival time, dose: 100.0 mg/kg/injection, schedule: Q04DX002 (ip), vehicle: saline with Tween-80
[8] = endpoint: mean survival time, dose: 200.0 mg/kg/injection, schedule: Q04DX002 (ip), vehicle: saline with Tween-80
[9] = endpoint: mean survival time, dose: 400.0 mg/kg/injection, schedule: Q04DX002 (ip), vehicle: saline with Tween-80
[10] = endpoint: mean survival time, dose: 100.0 mg/kg/injection, schedule: Q01DX001 (ip), vehicle: saline
[11] = endpoint: mean survival time, dose: 200.0 mg/kg/injection, schedule: Q01DX001 (ip), vehicle: saline
[12] = endpoint: mean survival time, dose: 400.0 mg/kg/injection, schedule: Q01DX001 (ip), vehicle: saline
[13] = endpoint: mean survival time, dose: 50.0 mg/kg/injection, schedule: Q01DX009 (ip), vehicle: saline with Tween-80
[14] = endpoint: mean survival time, dose: 100.0 mg/kg/injection, schedule: Q01DX009 (ip), vehicle: saline with Tween-80
[15] = endpoint: mean survival time, dose: 200.0 mg/kg/injection, schedule: Q01DX009 (ip), vehicle: saline with Tween-80
[16] = endpoint: mean survival time, dose: 100.0 mg/kg/injection, schedule: Q01DX001 (ip), vehicle: saline with Tween-80
[17] = endpoint: mean survival time, dose: 200.0 mg/kg/injection, schedule: Q01DX001 (ip), vehicle: saline with Tween-80
[18] = endpoint: mean survival time, dose: 400.0 mg/kg/injection, schedule: Q01DX001 (ip), vehicle: saline with Tween-80

`CCCC1=C(CCC)C(F)(F)C1(F)F` was tested, and the T/C [1] was 98 % of control, the T/C [2] was 96 % of control and the T/C [3] was 108 % of control.

With `Cc1c2ccccc2cc2c1ccc1ccccc12` the T/C (endpoint: mean survival time, dose: 9.0 mg/kg/injection, schedule: Q01DX009 (ip), vehicle: saline with Tween-80) was 106 % of control, the T/C (endpoint: mean survival time, dose: 17.5 mg/kg/injection, schedule: Q01DX009 (ip), vehicle: saline with Tween-80) was 108 % of control and the T/C (endpoint: mean survival time, dose: 35.0 mg/kg/injection, schedule: Q01DX009 (ip), vehicle: saline with Tween-80) was 108 % of control. The T/C (endpoint: mean survival time, dose: 70.0 mg/kg/injection, schedule: Q01DX009 (ip), vehicle: saline with Tween-80) was 103 % of control.

In the case of `O=C(O)Cc1cc2c(cc1I)OCO2`, the T/C [4] is reported as 100 % of control, the T/C [5] is reported as 95 % of control and the T/C [6] is reported as 101 % of control.

For `Nc1ncnc2c1ncn2[C@@H](C=O)O[C@@H](C=O)CO`, the T/C (endpoint: mean survival time, dose: 3.12 mg/kg/injection, schedule: Q01DX009 (ip), vehicle: saline with Tween-80) was 164 % of control, the T/C (endpoint: mean survival time, dose: 3.13 mg/kg/injection, schedule: Q01DX005 (ip), vehicle: saline with Tween-80) was 152 % of control and the T/C (endpoint: mean survival time, dose: 6.25 mg/kg/injection, schedule: Q01DX005 (ip), vehicle: saline with Tween-80) was 180 % of control. The T/C (endpoint: mean survival time, dose: 6.25 mg/kg/injection, schedule: Q01DX009 (ip), vehicle: saline with Tween-80) was 176 % of control, the T/C (endpoint: mean survival time, dose: 12.5 mg/kg/injection, schedule: Q01DX005 (ip), vehicle: other) was 165 % of control and the T/C (endpoint: mean survival time, dose: 12.5 mg/kg/injection, schedule: Q01DX005 (ip), vehicle: saline with Tween-80) was 153 % of control. The T/C (endpoint: mean survival time, dose: 12.5 mg/kg/injection, schedule: Q01DX009 (ip), vehicle: saline with Tween-80) was 185 % of control, the T/C (endpoint: mean survival time, dose: 25.0 mg/kg/injection, schedule: Q01DX005 (ip), vehicle: other) was 172 % of control and the T/C (endpoint: mean survival time, dose: 25.0 mg/kg/injection, schedule: Q01DX009 (ip), vehicle: saline with Tween-80) was 89 % of control.

`CN(C)c1ccc(N=Nc2ccc(CI)cc2)cc1` was tested, and the T/C (endpoint: mean survival time, dose: 25.0 mg/kg/injection, schedule: Q04DX003 (ip), vehicle: Klucel (hydroxypropylcellulose) (HPC)) was 89 % of control, the T/C (endpoint: mean survival time, dose: 50.0 mg/kg/injection, schedule: Q04DX003 (ip), vehicle: Klucel (hydroxypropylcellulose) (HPC)) was 112 % of control and the T/C (endpoint: mean survival time, dose: 100.0 mg/kg/injection, schedule: Q04DX003 (ip), vehicle: Klucel (hydroxypropylcellulose) (HPC)) was 96 % of control. The T/C (endpoint: mean survival time, dose: 200.0 mg/kg/injection, schedule: Q04DX003 (ip), vehicle: Klucel (hydroxypropylcellulose) (HPC)) was 93 % of control.

With `COc1ccc(Cl)c2c1C1(CC(CC=O)C2)OCCO1` (centres undefined) the T/C [1] was 100 % of control, the T/C [2] was 94 % of control and the T/C [3] was 94 % of control.

`CCC12C=CC(OC)(CC1)C(C#N)C2` (centres undefined) was tested, and the T/C (endpoint: mean survival time, dose: 50.0 mg/kg/injection, schedule: Q04DX002 (ip), vehicle: saline with Tween-80) was 103 % of control, the T/C [7] was 100 % of control and the T/C [8] was 91 % of control.

In the case of `CC1=C(C)CS(=O)(=O)C1`, the T/C [4] is reported as 95 % of control.

For `O=C(O)C(=O)O.[NH-]C1CCCCC1C1CCCCC1[NH-].[Pt+2]` (centres undefined), the T/C (endpoint: mean survival time, dose: 3.12 mg/kg/injection, schedule: Q04DX003 (ip), vehicle: distilled water + Tween-80) was 112 % of control, the T/C (endpoint: mean survival time, dose: 6.25 mg/kg/injection, schedule: Q04DX003 (ip), vehicle: distilled water + Tween-80) was 119 % of control and the T/C (endpoint: mean survival time, dose: 25.0 mg/kg/injection, schedule: Q04DX003 (ip), vehicle: distilled water + Tween-80) was 160 % of control. For the same molecule, the T/C (endpoint: mean survival time, dose: 50.0 mg/kg/injection, schedule: Q04DX003 (ip), vehicle: distilled water + Tween-80) was 238 % of control.

In the case of `CN(C)C(=O)Nc1ccc(Br)cc1`, the T/C [7] is reported as 86 % of control, the T/C [8] is reported as 93 % of control and the T/C [9] is reported as 93 % of control.

`CC(=O)Nc1ncc2ccccc2c1-c1ccc(NC(=O)CN(CCO)CCO)cc1` was tested, and the T/C (endpoint: mean survival time, dose: 25.0 mg/kg/injection, schedule: Q04DX003 (ip), vehicle: other) was 104 % of control, the T/C (endpoint: mean survival time, dose: 50.0 mg/kg/injection, schedule: Q04DX003 (ip), vehicle: other) was 108 % of control and the T/C (endpoint: mean survival time, dose: 100.0 mg/kg/injection, schedule: Q04DX003 (ip), vehicle: other) was 100 % of control. The T/C (endpoint: mean survival time, dose: 200.0 mg/kg/injection, schedule: Q04DX003 (ip), vehicle: other) was 96 % of control and the T/C (endpoint: mean survival time, dose: 400.0 mg/kg/injection, schedule: Q04DX003 (ip), vehicle: other) was 104 % of control.

With `Cc1ccc(NC(=O)c2ccc(C(=O)Nc3ccc(C)c(Cl)c3)cc2)cc1Cl` the T/C [10] was 89 % of control, the T/C [11] was 98 % of control and the T/C [12] was 89 % of control.

For `O=CNc1cc([N+](=O)[O-])ccc1OCc1ccccc1`, the T/C [10] was 100 % of control, the T/C [11] was 97 % of control and the T/C [12] was 96 % of control.

For `COC(=O)C[C@](O)(CCC(C)(C)O)C(=O)O[C@@H]1C(OC)=C[C@]23CCCN2CCc2cc4c(cc2[C@H]13)OCO4`, the T/C (endpoint: median survival time, dose: 0.06 mg/kg/injection, schedule: Q01DX009 (ip), vehicle: saline) was 120 % of control, the T/C (endpoint: median survival time, dose: 0.12 mg/kg/injection, schedule: Q01DX009 (ip), vehicle: saline) was 119 % of control and the T/C (endpoint: median survival time, dose: 0.25 mg/kg/injection, schedule: Q01DX009 (ip), vehicle: saline) was 120 % of control. The T/C (endpoint: median survival time, dose: 0.5 mg/kg/injection, schedule: Q01DX009 (ip), vehicle: saline) was 118 % of control and 120 % of control and the T/C (endpoint: median survival time, dose: 4.0 mg/kg/injection, schedule: Q01DX009 (ip), vehicle: saline) was 153 % of control.

In the case of `O=C(O)C(Br)CCC(Br)C(=O)O` (centres undefined), the T/C (endpoint: mean survival time, dose: 100.0 mg/kg/injection, schedule: Q01DX001 (ip), vehicle: other) is reported as 102 % of control, the T/C (endpoint: mean survival time, dose: 200.0 mg/kg/injection, schedule: Q01DX001 (ip), vehicle: other) is reported as 102 % of control and the T/C (endpoint: mean survival time, dose: 400.0 mg/kg/injection, schedule: Q01DX001 (ip), vehicle: other) is reported as 97 % of control.

With `O=C(O)CC1(CC(=O)O)CCCCC1` the T/C [13] was 98 % of control, the T/C [14] was 94 % of control and the T/C [4] was 91 % of control. For the same molecule, the T/C [15] was 100 % of control and the T/C [5] was 93 % of control.

`C[N+](C)(C)Cc1c[nH]c2ccccc12` was tested, and the T/C [16] was 94 % of control, the T/C [17] was 91 % of control and the T/C [18] was 96 % of control.

For `Cc1ccc(P(=S)(c2ccc(C)c3ccccc23)c2ccc(C)c3ccccc23)c2ccccc12`, the T/C [10] was 91 % of control, the T/C [11] was 97 % of control and the T/C [12] was 91 % of control.

`BrC1(Br)C2COCOCC21` (centres undefined) was tested, and the T/C [16] was 94 % of control, the T/C [17] was 94 % of control and the T/C [18] was 94 % of control.

`CCCCCC(=O)O[C@]1(C(C)=O)CC[C@H]2[C@@H]3CCC4=CC(=O)CC[C@]4(C)[C@H]3CC[C@@]21C` was tested, and the T/C (endpoint: median survival time, dose: 25.0 mg/kg/injection, schedule: Q01DX009 (ip), vehicle: saline with Tween-80) was 109 % of control, the T/C (endpoint: median survival time, dose: 50.0 mg/kg/injection, schedule: Q01DX009 (ip), vehicle: saline with Tween-80) was 96 % of control and the T/C (endpoint: median survival time, dose: 100.0 mg/kg/injection, schedule: Q01DX009 (ip), vehicle: saline with Tween-80) was 97 % of control. The T/C (endpoint: median survival time, dose: 200.0 mg/kg/injection, schedule: Q01DX009 (ip), vehicle: saline with Tween-80) was 95 % of control and the T/C (endpoint: median survival time, dose: 400.0 mg/kg/injection, schedule: Q01DX009 (ip), vehicle: saline with Tween-80) was 93 % of control.

For `CC(Br)C(=O)NC(C)C(=O)O` (centres undefined), the T/C [4] was 92 % of control, the T/C [5] was 108 % of control and the T/C [6] was 121 % of control.

With `CC(C)C1CCC(C)C(C(CC(=O)c2ccccc2)c2ccccc2)C1=O` (centres undefined) the T/C [7] was 97 % of control, the T/C [8] was 90 % of control and the T/C [9] was 101 % of control.

In the case of `CCC1=[N+](C)c2ccccc2C1(C)C`, the T/C (endpoint: mean survival time, dose: 100.0 mg/kg/injection, schedule: Q04DX003 (ip), vehicle: saline) is reported as 104 % of control.

With `SCCS` the T/C [13] was 105 % of control, the T/C [14] was 105 % of control and the T/C [15] was 94 % of control. The T/C [8] was 91 % of control.

`O=c1[nH]c2c(c(=O)n1-c1ccccc1)CCO2` was tested, and the T/C [10] was 98 % of control, the T/C [11] was 91 % of control and the T/C [12] was 98 % of control.

`CC(=O)c1ccc[n+](Cc2c(Cl)cccc2Cl)c1` was tested, and the T/C (endpoint: mean survival time, dose: 12.5 mg/kg/injection, schedule: Q04DX003 (ip), vehicle: saline) was 107 % of control, the T/C (endpoint: mean survival time, dose: 25.0 mg/kg/injection, schedule: Q04DX003 (ip), vehicle: saline) was 98 % of control and the T/C (endpoint: mean survival time, dose: 50.0 mg/kg/injection, schedule: Q04DX003 (ip), vehicle: saline) was 96 % of control.

In the case of `O=C(/C=C/c1ccc(Cl)c(Cl)c1)c1ccccc1`, the T/C (endpoint: mean survival time, dose: 50.0 mg/kg/injection, schedule: Q01DX009 (ip), vehicle: Klucel (hydroxypropylcellulose) (HPC)) is reported as 105 % of control and the T/C (endpoint: mean survival time, dose: 100.0 mg/kg/injection, schedule: Q01DX009 (ip), vehicle: Klucel (hydroxypropylcellulose) (HPC)) is reported as 98 % of control.
